Measurements reported in patent US11466044B2 (WAYNE STATE UNIVERSITY, priority 2017, dated 2022).
In brackets after ≈: the same amount, converted by molar mass. Where two headings read alike, the source gives them in different places.

Legend:
[1] = test system: Klebsiella pneumonia AG215; test: MIC by broth microdilution, Klebsiella pneumonia; format: cell-based; conditions: strain AG215 Klebsiella pneumonia; for MIC: Klebsiella pneumoniae, read-out: MIC AG215 K. pneumon
MRSA = test: MIC by broth microdilution, MRSA isolates; format: cell-based; conditions: Table 1 (Example 2); for MIC50 MRSA AG38: strain AG38
P aeruginosa = test: MIC by broth microdilution, P aeruginosa isolates; format: cell-based, Pseudomonas aeruginosa; conditions: for MIC50: Pseudomonas aeruginosa; for MIC: read-out: MIC AG220 P. aerugin
[2] = test system: Acinetobacter baumannii pittii AG225; test: MIC by broth microdilution, Acinetobacter baumannii; format: cell-based; conditions: strain AG225 Acinetobacter baumannii pittii
E coli wild type = test: MIC by broth microdilution, wild type E coli; format: cell-based; conditions: for MIC: Escherichia coli
[3] = test system: Enterobacter cloacae AG290; test: MIC by broth microdilution, Enterobacter cloacae; format: cell-based; conditions: strain AG290 Enterobacter cloacae; for MIC: read-out: MIC AG290 E. cloacae
M. smegmatis SZ380 = test: MIC by broth microdilution, M. smegmatis
[4] = test system: wild type bacterial ribosomes; test: in-vitro translation assay, bacterial ribosomes; format: biochemical; conditions: bacterial ribosome; Table 3 (Example 2); read-out: IC50 Bac
From the text: (§1) The antiribosomal activity of these compounds was investigated with cell-free translation assays using both wild type bacterial ribosomes and hybrid ribosomes carrying eukaryotic decoding A sites enabling the prediction of selectivity.

[5] = test system: cytosolic ribosome (human chimeric); format: biochemical; conditions: cytosolic; Table 3 (Example 2); read-out: IC50 Cyt
From the text: as §1

[6] = test system: mitochondrial ribosome (human chimeric); format: biochemical; conditions: mitochondrial; Table 3 (Example 2); read-out: IC50 Mit
From the text: as §1

M. abscessus = test: MIC by broth microdilution, M. abscessus; format: cell-based; conditions: for MIC: Mycobacteroides abscessus
[7] = test system: E coli carrying specific resistance determinants; test: MIC by broth microdilution, E coli carrying specific resistance determinants; format: cell-based; conditions: for MIC: Escherichia coli
[8] = strain AG220 Pseudomonas aeruginosa ATCC27853
[9] = ATCC25922, strain AG212 E. coli (ATCC25922), read-out: MIC AG212 E. coli

With `CCC(O)C1OC(OC2C(N)CC(N)C(O)C2OC2OC(CO)C(OC3OC(CN)C(O)C(O)C3N)C2O)C(N)C(O)C1O` (stereo not shown) [Compound 189] the “MIC AG215 K. pneumon” value [1] was 2 µg/mL (≈ 3.11 µM), the “MIC50 MRSA AG38” value (MRSA) was 4 to 8 µg/mL and the “MIC AG220 P. aerugin” value (P aeruginosa; [8]) was >64 µg/mL. The “MIC AG225 A. baumannii” value [2] was 4 to 8 µg/mL, the “MIC AG212 E. coli” value (E coli wild type; strain AG212 E. coli (ATCC25922)) was 8 µg/mL (≈ 12.4 µM) and the “MIC AG290 E. cloacae” value [3] was 2 to 4 µg/mL.
For `CC1CC(O)C2O[C@H](O[C@@H]3C(N)C[C@@H](N)C(O)[C@H]3O[C@@H]3O[C@H](CO)[C@H](O[C@H]4O[C@@H](CN)[C@@H](O)C(O)C4N)C3O)C(N)[C@@H](O)[C@@H]2O1` (stereo partly drawn) [Compound 109, 4-O-(2′-Amino-4′,8′-anhydro-2′,7′,9′-trideoxy-D-erythro-α-D-gluco-nonapyranosyl)-5-O-[3-O-(2,6-diamino-2,6-dideoxy-β-L-idopyranosyl)-β-D-ribofuranosyl]-2-deoxystreptamine.5AcOH], the “MIC SZ380 M. smegmatis” value (M. smegmatis SZ380; strain SZ380 Mycobacterium smegmatis) was 16 µg/mL (≈ 24.4 µM), the MIC50 (MRSA; Staphylococcus aureus, MRSA, strain AG42, read-out: MIC50 MRSA AG42) was 16 to 32 µg/mL (≈ 24.4 to 48.8 µM) and the “MIC50 MRSA AG38” value (MRSA) was 32 µg/mL (≈ 48.8 µM). For the same compound, the “MIC50 MRSA AG39” value (MRSA; strain AG39) was 32 to 64 µg/mL, the “MIC50 MRSA AG44” value (MRSA; strain AG44) was 32 µg/mL (≈ 48.8 µM) and the IC50 [4] was 0.47 µM. The MIC50 (P aeruginosa; strain AG33, Table 1 (Example 2), read-out: MIC50 P aeruginosa AG33) was > 128 µg/mL, the MIC50 (P aeruginosa; strain AG86, Table 1 (Example 2), read-out: MIC50 P aeruginosa AG86) was > 128 µg/mL and the “MIC50 P aeruginosa AG31” value (P aeruginosa; strain AG31, Table 1 (Example 2)) was >128 µg/mL. The “MIC50 P aeruginosa AG32” value (P aeruginosa; strain AG32, Table 1 (Example 2)) was >128 µg/mL, the IC50 [5] was 169 µM and the IC50 [6] was 193 µM. For the same compound, the “MIC50 E coli BM13 (AG06) wt” value (E coli wild type; BM13 (AG06) wt, Table 2A (Example 2)) was 16 to 32 µg/mL, the “MIC WT” value (E coli wild type; WT, Table 3 (Example 2)) was 16 to 32 µg/mL and the “MIC50 E coli pH430 WT” value (E coli wild type; pH430 WT, Table 2B (Example 2)) was 16-32 μg/ml. The “MIC50 E coli AG01” value (E coli wild type; strain AG01, Table 1 (Example 2)) was 128 µg/mL (≈ 195 µM), the “MIC50 E coli AG03” value (E coli wild type; strain AG03, Table 1 (Example 2)) was 64 to 128 µg/mL and the “MIC50 E coli AG55” value (E coli wild type; strain AG55, Table 1 (Example 2)) was 64 to 128 µg/mL.
With `NCC1O[C@H](O[C@@H]2C(O)[C@H](O[C@@H]3C(O)[C@H](N)CC(N)[C@H]3O[C@H]3OC(CO)[C@@H](CC(O)CO)C(O)[C@@H]3N)O[C@@H]2CO)C(N)C(O)[C@@H]1O` (stereo partly shown) [Compound 198] the MIC [1] was 2 to 4 µg/mL (≈ 2.97 to 5.94 µM), the MIC (P aeruginosa; [8]) was 16 µg/mL (≈ 23.7 µM) and the MIC [2] was 8 µg/mL (≈ 11.9 µM). For the same compound, the MIC (E coli wild type; [9]) was 8 µg/mL (≈ 11.9 µM) and the MIC [3] was 4 µg/mL (≈ 5.94 µM).
Work on `NCC1O[C@H](O[C@@H]2C(O)[C@H](O[C@@H]3C(O)[C@H](N)CC(N)[C@H]3O[C@H]3OC(CO)[C@@H](CCCO)C(O)[C@@H]3N)O[C@@H]2CO)C(N)C(O)[C@@H]1O` (stereo partly shown) [Compound 195] yielded an MIC [1] of 2 to 4 µg/mL (≈ 3.04 to 6.08 µM), an MIC (P aeruginosa; [8]) of 64 µg/mL (≈ 97.3 µM) and an MIC [2] of 8 µg/mL (≈ 12.2 µM). The MIC (E coli wild type; [9]) was 8 µg/mL (≈ 12.2 µM) and the MIC [3] was 4 µg/mL (≈ 6.08 µM).
`CCC[C@H]1C[C@H](N)[C@@H](O[C@@H]2C(N)C[C@@H](N)C(O)[C@H]2O[C@@H]2O[C@H](CNC=O)[C@H](O[C@H]3OC(CN)[C@@H](O)C(O)C3N)C2O)OC1CO` (stereo partly shown) [Compound 190] was tested, and the MIC [1] was 32 µg/mL (≈ 49 µM), the MIC (P aeruginosa; [8]) was > 64 µg/mL and the MIC [2] was > 64 µg/mL. It also gave an MIC (E coli wild type; [9]) of 16 µg/mL (≈ 24.5 µM) and an MIC [3] of 16 to 32 µg/mL (≈ 24.5 to 49 µM).
In the case of `CCC[C@@H]1C(CNCCO)O[C@H](O[C@@H]2C(N)C[C@@H](N)C(O)[C@H]2O[C@@H]2O[C@H](CNCCO)[C@H](O[C@H]3OC(CN)[C@@H](O)C(O)C3N)C2O)[C@@H](N)C1O` (stereo partly shown) [Compound 193], the MIC [1] is reported as 2 µg/mL (≈ 2.75 µM), the MIC (P aeruginosa; [8]) is reported as > 64 µg/mL and the MIC [2] is reported as 32 µg/mL (≈ 44 µM). The MIC (E coli wild type; [9]) was 4 µg/mL (≈ 5.5 µM) and the MIC [3] was 2 µg/mL (≈ 2.75 µM).
For gentamicin [reference compound], the “MIC M. smegmatis SZ380 WT” value (M. smegmatis SZ380; SZ380 WT, Table 5 (Example 3)) was 1 µg/mL, the “MIC M. abscessus ATCC 19977 WT” value (M. abscessus; ATCC 19977 WT, Table 5 (Example 3)) was 2 to 4 µg/mL and the “MIC M. abscessus engineered Δeis2” value (M. abscessus; engineered Δeis2, Table 5 (Example 3)) was 2 µg/mL. For the same compound, the “MIC E. coli AG106 AAC(2′)-Ia” value ([7]; AG106 AAC(2′)-Ia, Table 5 (Example 3)) was 2 to 4 µg/mL, the “MIC E. coli pGB2armA armA” value ([7]; pGB2armA armA, Table 5 (Example 3)) was >128 μg/ml and the “MIC E. coli WT” value (E coli wild type; WT, Table 5 (Example 3)) was 0.5 µg/mL.
`CN[C@@H]1[C@@H](O)[C@@H](O[C@@H]2[C@@H](O)[C@H](O[C@H]3OC(CNCCO)=CC[C@H]3N)[C@@H](N)C[C@H]2NC(=O)[C@@H](O)CCN)OC[C@]1(C)O` [PLZ, plazomicin, reference compound] gave an MIC (M. smegmatis SZ380; Mycolicibacterium smegmatis, SZ380, read-out: MIC M. smegmatis SZ380 WT, SZ380 WT, Table 5 (Example 3)) of 0.25 µg/mL (≈ 0.422 µM), an MIC (M. abscessus; ATCC19977, ATCC 19977 WT, Table 5 (Example 3), read-out: MIC M. abscessus ATCC 19977 WT) of 1 µg/mL (≈ 1.69 µM) and an MIC (M. abscessus; read-out: MIC M. abscessus clinical isolate) of 4 µg/mL (≈ 6.75 µM). For the same compound, the MIC (M. abscessus; read-out: MIC M. abscessus engineered Δeis2) was 1 µg/mL (≈ 1.69 µM), the MIC ([7]; read-out: MIC E. coli AG106 AAC(2′)-Ia) was 8 to 16 µg/mL (≈ 13.5 to 27 µM) and the MIC ([7]; read-out: MIC E. coli pGB2armA armA) was > 128 µg/mL. For the same compound, the MIC ([7]; read-out: MIC E. coli pH434 AAC(2′)-Ib) was 8 µg/mL (≈ 13.5 µM) and the MIC (E coli wild type; WT, Table 5 (Example 3), read-out: MIC E. coli WT) was 0.5 to 1 µg/mL (≈ 0.844 to 1.69 µM).
